Laboratory results from patent publication US6642271B2, “Potentiating compounds” (Ardenia Investments, Ltd., priority 2001, dated 2003).

Tests used:
[1] = Solubility of compounds and formulations; assay type: physicochemical; conditions: for solubility in solvents: sodium salts
Protocol: The obtained solution can be stored for at least three months at low temperatures, without noticeable change in the properties of compound (I-VI). Moreover, the formulation retains its cytotoxic effects during prolonged storage. Before use, the solution is evaporated in vacuo to yield a waxy solid which is dissolved in saline or other commonly used vehicle for intravenous infusion to a patient. […] An ethanol solution is prepared of one of N-(all-trans-Retinoyl)-L-cysteic acid (I), N-(13-cis-Retinoyl)-L-cysteic acid (11), N-(all-trans-Retinoyl)-L-homocysteic acid (III), N-(13-cis-Retinoyl)-L-homocysteic acid (IV), N-(all-trans-Retinoyl)-L-cysteinesulfinic acid (V), or N-(13-cis-Retinoyl)-L-cysteinesulfinic acid (VI). The obtained solution is evaporated in vacuo to give waxy solid, whereupon Taxol® is added, dissolving the waxy solid. […]

[2] = system: human breast adenocarcinoma MDA-MB-231 cell line; assay: Cytotoxicity: cell growth inhibition in cultures, viable cells counted by trypan blue exclusion; assay type: cell-based; conditions: for inhibition at 0.04 µM / inhibition at 1 µM / inhibition at 0.1 µM / inhibition at 0.01 µM / inhibition at 0.001 µM / inhibition at 0.0001 µM / inhibition at 10 pM: Homo sapiens; for inhibition at 0.04 µM / inhibition at 1 µM / inhibition at 0.1 µM / inhibition at 0.01 µM / inhibition at 0.001 µM / inhibition at 0.0001 µM: MDA-MB-231, sodium salt in saline; for inhibition at 0.04 µM / inhibition at 1 µM / inhibition at 0.1 µM / inhibition at 0.01 µM / inhibition at 0.001 µM / inhibition at 0.0001 µM / inhibition at 10 pM / number of living cells / cell growth inhibition: day 1, three days; for inhibition at 1 µM / cell growth inhibition: final 10^−6 mol/L (top of range 10^−11 M to 10^−6 M); for inhibition at 10 pM: MDA-MB-231, sodium salt of the compound dissolved in saline (1 mg/ml); for Cell growth inhibition % Formulation: compound/paclitaxel formulations in saline; for Cell growth inhibition % OF W/SAB / Cell growth inhibition % OF SAB/W: dried compound/paclitaxel mixed-micellar system (OF); for Cell growth inhibition % OF W/SAB: freeze-dried as water solution, reconstituted with 0.05 M sodium acetate buffer; for Cell growth inhibition % OF SAB/W: freeze-dried in 0.05 M sodium acetate buffer, reconstituted with water
Protocol: The cell line was propagated by cultivation in Nunclon 25 cm^2 flasks (Nunc A/S, Denmark) in Minimum Essential Medium Eagle (MEM), containing antibiotics and supplemented with 10% (v/v) fetal bovine serum (FBS) (Sigma, St. Louis, Mo., USA). The cultures were maintained in growth medium at 37° C. in a humidified atmosphere, 95% air and 5% CO2.
A suspension of tumour cells (60×10^3 cells/mL) was prepared in MEM with 5% FBS and antibiotics. Cell suspension (200 μL) was seeded in wells of Nunclon 96-microwell plates (Nunc A/S, Denmark) at a density of 12×10^3 cell/well. The solutions of the drugs to be tested were added to the cultures on day 0 or day 1 in volumes of 2 μL. In all cases the cells were incubated for 3 days.
At the end of the incubation period, adherent cells were detached by trypsinization and the number of viable cells was counted using trypan blue dye exclusion test and a hemocytometer.
All experiments were performed at least twice and the cells counts were done in triplicate for each drug concentration. Each control and test series consisted of 6-8 cultures. The results are expressed as mean cell number ±SD and the differences between control and test series were evaluated by means of Student's t-test. The cytotoxicity of each tested drug was evaluated by the extent of cell growth inhibition. The Cell growth inhibition was evaluated as follows:
Cell growth inhibition, %=- - - ×100

[3] = final concentration 10^−11 mol/L
[4] = sodium salt in saline, final 4 × 10^−8 mol/L
[5] = sodium salt in saline, final 10^−6 mol/L
[6] = sodium salt in saline, final 10^−7 mol/L
[7] = sodium salt in saline, final 10^−8 mol/L
[8] = sodium salt in saline, final 10^−9 mol/L
[9] = sodium salt in saline, final 10^−10 mol/L
[10] = sodium salt of the compound dissolved in saline (1 mg/ml), final concentration 10^−11 mol/L

Compound | solubility in the commercially available Taxol® preparation [1] | solubility in solvents [1] | inhibition at 0.04 µM ([2]; final 4 × 10^−8 mol/L) [%] | inhibition at 1 µM [2] [%] | inhibition at 0.1 µM ([2]; final 10^−7 mol/L) [%] | inhibition at 0.01 µM ([2]; final 10^−8 mol/L) [%] | inhibition at 0.001 µM ([2]; final 10^−9 mol/L) [%] | inhibition at 0.0001 µM ([2]; final 10^−10 mol/L) [%] | inhibition at 10 pM [2, 3] [%] | Cell growth inhibition % Formulation [2] | Cell growth inhibition % OF W/SAB [2] | Cell growth inhibition % OF SAB/W [2] | number of living cells [2, 4] | cell growth inhibition ([2]; sodium salt in saline) [%] | number of living cells [2, 5] | number of living cells [2, 6] | number of living cells [2, 7] | number of living cells [2, 8] | number of living cells [2, 9] | number of living cells [2, 10]
CC1=C(/C=C/C(C)=C/C=C/C(C)=C\C(=O)N[C@@H](CCS(=O)(=O)O)C(=O)O)C(C)(C)CCC1 [Compound IV, N-(13-cis-Retinoyl)-L-homocysteic acid] | excellent solubility | also dissolved in methanol and some methanol containing mixtures | 29.6 | 31.9 | 31.1 | 24.9 | 17.3 | 16.1 | 14.8 | close to 60% | close to 62% | close to 63% | 37.1 ± 2.56 × 10^3 | ~35 | 35.9 ± 2.29 × 10^3 | 36.3 ± 2.08 × 10^3 | 39.6 ± 2.74 × 10^3 | 43.6 ± 3.21 × 10^3 | 44.2 ± 3.35 × 10^3 | 44.9 ± 3.02 × 10^3
CC1=C(/C=C/C(C)=C/C=C/C(C)=C/C(=O)N[C@@H](CS(=O)O)C(=O)O)C(C)(C)CCC1 [Compound V, N-(all-trans-Retinoyl)-L-cysteinesulfinic acid] | excellent solubility | soluble only in mixtures containing water | 27.1 | 29.8 | 27.6 | 24.3 | 16.2 | 14.7 | 13.3 | close to 55% | close to 56% | close to 58% | 39.6 ± 1.75 × 10^3 | ~30 | 38.1 ± 1.86 × 10^3 | 39.3 ± 1.22 × 10^3 | 41.1 ± 2.34 × 10^3 | 45.5 ± 2.80 × 10^3 | 46.3 ± 2.49 × 10^3 | 47.1 ± 2.41 × 10^3
CC1=C(/C=C/C(C)=C/C=C/C(C)=C\C(=O)N[C@@H](CS(=O)O)C(=O)O)C(C)(C)CCC1 [Compound VI, N-(13-cis-Retinoyl)-L-cysteinesulfinic acid] | excellent solubility | soluble only in mixtures containing water | 24.9 | 27.3 | 25.8 | 22.4 | 14 | 13.7 | 12.3 | close to 55% | close to 56% | close to 58% | 39.6 ± 2.70 × 10^3 | ~30 | 38.3 ± 2.34 × 10^3 | 39.1 ± 2.16 × 10^3 | 40.9 ± 2.88 × 10^3 | 45.3 ± 2.55 × 10^3 | 45.5 ± 2.68 × 10^3 | 46.2 ± 3.54 × 10^3
